How the values were obtained:
[1] = xn = mol fraction of the nth substance listed; conditions: 101 kPa, Liquid; for speed of sound: Sing-around technique in a fixed-path interferometer; for mass density: Vibrating tube method
[2] = refractive index (Na D-line) (dimensionless); xn = mol fraction of the nth substance listed; conditions: 101 kPa, Liquid, Standard Abbe refractometry

CCOC(C)=O [ethyl acetate] + CCCCCC
Conditions	mass density, 293.15 K [kg/m3]	mass density, 298.15 K [kg/m3]	mass density, 303.15 K [kg/m3]	refractive index, 293.15 K	refractive index, 298.15 K	refractive index, 303.15 K	speed of sound, 293.15 K [m/s]	speed of sound, 298.15 K [m/s]	speed of sound, 303.15 K [m/s]
[1], x2 = 0	900.5	894.4	888.2	–	–	–	1162	1141	1111
[1], x2 = 0.0469	884.3	878.2	872.2	–	–	–	1152	1129	1099
[1], x2 = 0.0969	868	862	855.9	–	–	–	1141	1119	1089
[1], x2 = 0.1898	838.9	833.1	827.3	–	–	–	1125	1103	1074
[1], x2 = 0.2962	808.6	803	797.3	–	–	–	1111	1089	1061
[1], x2 = 0.3907	783.5	778	772.4	–	–	–	1101	1079	1053
[1], x2 = 0.5028	756	750.7	745.3	–	–	–	1093	1071	1046
[1], x2 = 0.598	734.5	729.3	724.1	–	–	–	1090	1067	1042
[1], x2 = 0.6995	713.1	708.1	703.1	–	–	–	1088	1066	1041
[1], x2 = 0.803	693.3	688.4	683.5	–	–	–	1089	1067	1043
[1], x2 = 0.9005	675.8	671.1	666.4	–	–	–	1093	1071	1047
[1], x2 = 0.9514	667.3	662.7	658.1	–	–	–	1096	1074	1051
[2], x2 = 0	–	–	–	1.37241	1.36977	1.36712	–	–	–
[2], x2 = 0.0469	–	–	–	1.37193	1.36926	1.3666	–	–	–
[2], x2 = 0.0969	–	–	–	1.37157	1.3689	1.36622	–	–	–
[2], x2 = 0.1898	–	–	–	1.37105	1.36832	1.36559	–	–	–
[2], x2 = 0.2962	–	–	–	1.3706	1.36785	1.36513	–	–	–
[2], x2 = 0.3907	–	–	–	1.37053	1.36776	1.365	–	–	–
[2], x2 = 0.5028	–	–	–	1.37066	1.36789	1.36511	–	–	–
[2], x2 = 0.598	–	–	–	1.37101	1.36823	1.36547	–	–	–
[2], x2 = 0.6995	–	–	–	1.3718	1.36896	1.36611	–	–	–
[2], x2 = 0.803	–	–	–	1.37266	1.3698	1.36689	–	–	–
[2], x2 = 0.9005	–	–	–	1.37381	1.37096	1.36803	–	–	–
[2], x2 = 0.9514	–	–	–	1.3744	1.37157	1.36866	–	–	–

CCCCCCn1cc[n+](C)c1.F[P-](F)(F)(F)(F)F [1-hexyl-3-methylimidazolium hexafluorophosphate] + CCOC(C)=O
Conditions	mass density, 293.15 K [kg/m3]	mass density, 298.15 K [kg/m3]	mass density, 303.15 K [kg/m3]	refractive index, 293.15 K	refractive index, 298.15 K	refractive index, 303.15 K	speed of sound, 293.15 K [m/s]	speed of sound, 298.15 K [m/s]	speed of sound, 303.15 K [m/s]
[1], x1 = 0.0506	952.6	946.8	941	–	–	–	1185	1163	1142
[1], x1 = 0.104	998.7	993.2	987.6	–	–	–	1210	1189	1169
[1], x1 = 0.1978	1063.8	1058.6	1053.4	–	–	–	1252	1233	1215
[1], x1 = 0.2924	1114.6	1109.8	1104.9	–	–	–	1288	1271	1254
[1], x1 = 0.4549	1179.7	1175.2	1170.5	–	–	–	1335	1320	1305
[1], x1 = 0.4974	1193.3	1188.9	1184.2	–	–	–	1346	1331	1317
[1], x1 = 0.5904	1219.5	1215.2	1210.7	–	–	–	1366	1352	1338
[1], x1 = 0.7015	1245.8	1241.5	1237.2	–	–	–	1387	1374	1361
[1], x1 = 0.7926	1263.8	1259.8	1255.6	–	–	–	1403	1390	1378
[1], x1 = 0.8941	1281.6	1277.6	1273.8	–	–	–	1420	1407	1395
[1], x1 = 0.9459	1289.8	1285.8	1282	–	–	–	1429	1415	1403
[1], x1 = 1	1297.9	1293.7	1289.6	–	–	–	1438	1424	1411
[2], x1 = 0.0506	–	–	–	1.38064	1.37838	1.37606	–	–	–
[2], x1 = 0.104	–	–	–	1.3874	1.38537	1.38312	–	–	–
[2], x1 = 0.1978	–	–	–	1.39645	1.39415	1.39194	–	–	–
[2], x1 = 0.2924	–	–	–	1.402	1.40007	1.39821	–	–	–
[2], x1 = 0.4549	–	–	–	1.40845	1.4069	1.40523	–	–	–
[2], x1 = 0.4974	–	–	–	1.40969	1.40821	1.40664	–	–	–
[2], x1 = 0.5904	–	–	–	1.41237	1.41083	1.40893	–	–	–
[2], x1 = 0.7015	–	–	–	1.41438	1.41296	1.4115	–	–	–
[2], x1 = 0.7926	–	–	–	1.41592	1.41446	1.41307	–	–	–
[2], x1 = 0.8941	–	–	–	1.41731	1.41594	1.41454	–	–	–
[2], x1 = 0.9459	–	–	–	1.41797	1.41662	1.41526	–	–	–
[2], x1 = 1	–	–	–	1.41923	1.41787	1.41643	–	–	–

Source: the NIST ThermoML archive (doi:10.1021/je800077r)
